According to ChEMBL document CHEMBL4665709, “Rational Avoidance of Protease Cleavage Sites and Symmetrical End-Tagging Significantly Enhances the Stability and Therapeutic Potential of Antimicrobial Peptides” (J Med Chem, 2020):
Values after ≈ are worked out from the molar mass of the structure shown. Where a SMILES comes first, the peptide text is derived from it.

Assays:
Salmonella typhimurium [1] = experiment: Antibacterial activity against Salmonella typhimurium 7731 after 18 to 24 hrs by CLSI-based broth microdilution method; assay type: functional, Salmonella enterica subsp. enterica serovar Typhimurium; details: Salmonella enterica, time hrs 18-24
Escherichia coli [2] = experiment: Antibacterial activity against Escherichia coli ATCC 25922 after 18 to 24 hrs in presence of 4.5 mM K+ by CLSI-based broth microdilution method; assay type: functional; details: time hrs 18-24
[3] = Stability of compound at 100 degreeC after 30 to 90 mins; assay type: physicochemical; details: time 30-90 min
Staphylococcus aureus [4] = experiment: Antibacterial activity against Staphylococcus aureus ATCC 29213 after 18 to 24 hrs in presence of 50% human serum by CLSI-based broth microdilution method; assay type: functional; details: time hrs 18-24
Staphylococcus aureus [5] = experiment: Antibacterial activity against Staphylococcus aureus ATCC 29213 after 18 to 24 hrs in presence of 8 uM Zn2+ by CLSI-based broth microdilution method; assay type: functional; details: time hrs 18-24
[6] = Therapeutic index, ratio of MHC for human RBC to geometric mean of peptide MIC for Streptococcus agalactiae H92; assay type: toxicity; details: human red blood cells (RBC), read-out: TI
[7] = Therapeutic index, ratio of MHC for human RBC to geometric mean of peptide MIC for Escherichia coli UB1005; assay type: toxicity; details: human red blood cells (RBC), read-out: TI
Escherichia coli [8] = experiment: Antibacterial activity against Escherichia coli ATCC 25922 after 18 to 24 hrs in presence of 25% human serum by CLSI-based broth microdilution method; assay type: functional; details: time hrs 18-24
Staphylococcus aureus [9] = experiment: Antibacterial activity against Staphylococcus aureus 11011 after 18 to 24 hrs by CLSI-based broth microdilution method; assay type: functional; details: time hrs 18-24
[10] = Hemolytic activity in human RBC assessed as hemolysis at 1 to 128 uM relative to control; assay type: ADME, cell-based, Erythrocyte; details: human red blood cells (RBC), dose 1-128 µM, read-out: Activity
Staphylococcus aureus [11] = experiment: Antibacterial activity against Staphylococcus aureus ATCC 29213 after 18 to 24 hrs in presence of 4.5 mM K+ by CLSI-based broth microdilution method; assay type: functional; details: time hrs 18-24
Streptococcus agalactiae = experiment: Antibacterial activity against Streptococcus agalactiae H92 after 18 to 24 hrs by CLSI-based broth microdilution method; assay type: functional; details: time hrs 18-24
Erythrocyte = experiment: Hemolytic activity in human RBC assessed as hemolysis; assay type: ADME, cell-based
Escherichia coli [12] = experiment: Antibacterial activity against Escherichia coli ATCC 25922 after 18 to 24 hrs in presence of 6 uM NH4+ by CLSI-based broth microdilution method; assay type: functional; details: time hrs 18-24
[13] = Therapeutic index, ratio of MHC for human RBC to geometric mean of peptide MIC for Staphylococcus aureus ATCC 29213; assay type: toxicity; details: human red blood cells (RBC), read-out: TI
Staphylococcus aureus [14] = experiment: Antibacterial activity against Staphylococcus aureus ATCC 29213 after 18 to 24 hrs in presence of 6 uM NH4+ by CLSI-based broth microdilution method; assay type: functional; details: time hrs 18-24
Escherichia coli [15] = experiment: Antibacterial activity against Escherichia coli ATCC 25922 after 18 to 24 hrs in presence of 150 mM Na+ by CLSI-based broth microdilution method; assay type: functional; details: time hrs 18-24
Escherichia coli [16] = experiment: Antibacterial activity against Escherichia coli ATCC 25922 after 18 to 24 hrs in presence of 1 mM Mg2+ by CLSI-based broth microdilution method; assay type: functional; details: time hrs 18-24
Staphylococcus aureus [17] = experiment: Antibacterial activity against Staphylococcus aureus ATCC 29213 after 18 to 24 hrs by CLSI-based broth microdilution method; assay type: functional; details: time hrs 18-24
Staphylococcus aureus [18] = experiment: Antibacterial activity against Staphylococcus aureus ATCC 29213 after 18 to 24 hrs in presence of 25% human serum by CLSI-based broth microdilution method; assay type: functional; details: time hrs 18-24
[19] = Antibacterial activity against Salmonella pullorum 7913 after 18 to 24 hrs by CLSI-based broth microdilution method; assay type: functional, Salmonella enterica subsp. enterica serovar Pullorum; details: Salmonella enterica, time hrs 18-24
[20] = Therapeutic index, ratio of MHC for human RBC to geometric mean of peptide MIC for Staphylococcus aureus 11011; assay type: toxicity; details: human red blood cells (RBC), read-out: TI
[21] = Therapeutic index, ratio of MHC for human RBC to geometric mean of peptide MIC for Salmonella choleraesuis 503; assay type: toxicity; details: human red blood cells (RBC), read-out: TI
[22] = Cytotoxicity against HEK-293T cells assessed as cell viability at 128 uM by MTT assay relative to control; assay type: cell-based; details: human, read-out: Activity
Escherichia coli [23] = experiment: Antibacterial activity against Escherichia coli ATCC 25922 after 18 to 24 hrs by CLSI-based broth microdilution method; assay type: functional; details: time hrs 18-24
Staphylococcus aureus [24] = experiment: Antibacterial activity against methicillin-resistant Staphylococcus aureus 43300 after 18 to 24 hrs by CLSI-based broth microdilution method; assay type: functional; details: time hrs 18-24
Staphylococcus aureus [25] = experiment: Antibacterial activity against Staphylococcus aureus ATCC 29213 after 18 to 24 hrs in presence of 6 uM Fe3+ by CLSI-based broth microdilution method; assay type: functional; details: time hrs 18-24
[26] = Therapeutic index, ratio of MHC for human RBC to geometric mean of peptide MIC for Staphylococcus epidermidis ATCC 12228; assay type: toxicity; details: human red blood cells (RBC), read-out: TI
Staphylococcus aureus [27] = experiment: Antibacterial activity against Staphylococcus aureus ATCC 29213 after 18 to 24 hrs in presence of 1 mM Mg2+ by CLSI-based broth microdilution method; assay type: functional; details: time hrs 18-24
[28] = Therapeutic index, ratio of MHC for human RBC to geometric mean of peptide MIC for methicillin-resistant Staphylococcus aureus 43300; assay type: toxicity; details: human red blood cells (RBC), read-out: TI
[29] = Therapeutic index, ratio of MHC for human RBC to geometric mean of peptide MIC for Salmonella typhimurium 7731; assay type: toxicity; details: human red blood cells (RBC), read-out: TI
Escherichia coli [30] = experiment: Antibacterial activity against Escherichia coli ATCC 25922 after 18 to 24 hrs in presence of 100% human serum by CLSI-based broth microdilution method; assay type: functional; details: time hrs 18-24
[31] = Therapeutic index, ratio of MHC for human RBC to geometric mean of peptide MIC for Salmonella pullorum 7913; assay type: toxicity; details: human red blood cells (RBC), read-out: TI
[32] = Cytotoxicity against mouse RAW264.7 cells assessed as cell viability at 128 uM by MTT assay relative to control; assay type: cell-based; details: read-out: Activity
Escherichia coli [33] = experiment: Antibacterial activity against Escherichia coli ATCC 25922 after 18 to 24 hrs in presence of 50% human serum by CLSI-based broth microdilution method; assay type: functional; details: time hrs 18-24
Escherichia coli [34] = experiment: Antibacterial activity against Escherichia coli UB1005 after 18 to 24 hrs by CLSI-based broth microdilution method; assay type: functional; details: time hrs 18-24
Enterococcus faecalis = experiment: Antibacterial activity against Enterococcus faecalis ATCC 29212 after 18 to 24 hrs by CLSI-based broth microdilution method; assay type: functional; details: time hrs 18-24
[35] = Therapeutic index, ratio of MHC for human RBC to geometric mean of peptide MIC for Escherichia coli ATCC 25922; assay type: toxicity; details: human red blood cells (RBC), read-out: TI
Salmonella typhimurium [36] = experiment: Antibacterial activity against Salmonella typhimurium 14028 after 18 to 24 hrs by CLSI-based broth microdilution method; assay type: functional, Salmonella enterica subsp. enterica serovar Typhimurium; details: Salmonella enterica, time hrs 18-24
[37] = Therapeutic index, ratio of MHC for human RBC to geometric mean of peptide MIC for Salmonella typhimurium 14028; assay type: toxicity; details: human red blood cells (RBC), read-out: TI
Escherichia coli [38] = experiment: Antibacterial activity against Escherichia coli ATCC 25922 after 18 to 24 hrs in presence of 6 uM Fe3+ by CLSI-based broth microdilution method; assay type: functional; details: time hrs 18-24
Escherichia coli [39] = experiment: Antibacterial activity against Escherichia coli ATCC 25922 after 18 to 24 hrs in presence of 8 uM Zn2+ by CLSI-based broth microdilution method; assay type: functional; details: time hrs 18-24
Staphylococcus aureus [40] = experiment: Antibacterial activity against Staphylococcus aureus ATCC 29213 after 18 to 24 hrs in presence of 100% human serum by CLSI-based broth microdilution method; assay type: functional; details: time hrs 18-24
Salmonella enterica = experiment: Antibacterial activity against Salmonella choleraesuis 503 after 18 to 24 hrs by CLSI-based broth microdilution method; assay type: functional; details: time hrs 18-24
[41] = system: Staphylococcus epidermidis; experiment: Antibacterial activity against Staphylococcus epidermidis ATCC 12228 after 18 to 24 hrs by CLSI-based broth microdilution method; assay type: functional; details: time hrs 18-24
[42] = Therapeutic index, ratio of MHC for human RBC to geometric mean of peptide MIC for Enterococcus faecalis ATCC 29212; assay type: toxicity; details: human red blood cells (RBC), read-out: TI
Staphylococcus aureus [43] = experiment: Antibacterial activity against Staphylococcus aureus ATCC 29213 after 18 to 24 hrs in presence of 150 mM Na+ by CLSI-based broth microdilution method; assay type: functional; details: time hrs 18-24

With `CC[C@H](C)[C@H](N)C(=O)N[C@@H](CS)C(=O)N[C@@H](CCCNC(=N)N)C(=O)N[C@@H](CCCCN)C(=O)N1CCC[C@H]1C(=O)N[C@H](C(=O)N[C@H](C(=O)N[C@@H](CS)C(=O)N[C@@H](CCCNC(=N)N)C(=O)N[C@@H](CCCCN)C(=O)N1CCC[C@H]1C(=O)N[C@H](C(=O)N[C@H](C(=O)N[C@@H](CS)C(=O)N[C@@H](CCCNC(=N)N)C(=O)N[C@@H](CCCCN)C(=O)N1CCC[C@H]1C(=O)N[C@H](C(=O)N[C@H](C(=O)N[C@@H](CS)C(=O)N[C@@H](CCCNC(=N)N)C(=O)N[C@@H](CCCCN)C(=O)N1CCC[C@H]1C(=O)N[C@H](C(N)=O)[C@@H](C)CC)[C@@H](C)CC)[C@@H](C)CC)[C@@H](C)CC)[C@@H](C)CC)[C@@H](C)CC)[C@@H](C)CC` (H-ICRKPIICRKPIICRKPIICRKPI-NH2) the MIC (Salmonella typhimurium [1]) was 4 µM (≈ 11.4 µg/mL), the MIC (Escherichia coli [2]) was 4 µM and the Stabilty [3] was “Stable”. It also gave an MIC (Staphylococcus aureus [4]) of over 64 µM, an MIC (Staphylococcus aureus [5]) of over 64 µM and a selectivity ratio [6] of 2. It also gave a selectivity ratio [7] of 32, an MIC (Escherichia coli [8]) of 4 µM and an MIC (Staphylococcus aureus [9]) of over 64 µM. For the same compound, the hemolysis at up to 128 µM [10] was under 5%, the MIC (Staphylococcus aureus [11]) was over 64 µM and the MIC (Streptococcus agalactiae) was over 64 µM. The MHC (Erythrocyte) was over 128 µM, the MIC (Escherichia coli [12]) was 2 µM and the selectivity ratio [13] was 2. The MIC (Staphylococcus aureus [14]) was over 64 µM, the MIC (Escherichia coli [15]) was 32 µM and the MIC (Escherichia coli [16]) was 8 µM. The MIC (Staphylococcus aureus [17]) was over 64 µM, the MIC (Staphylococcus aureus [18]) was over 64 µM and the MIC [19] was 16 µM (≈ 45.8 µg/mL). The selectivity ratio [20] was 2, the selectivity ratio [21] was 32 and the viability at 128 µM [22] was over 90%. For the same compound, the MIC (Escherichia coli [23]) was 2 µM (≈ 5.72 µg/mL), the MIC (Staphylococcus aureus [24]) was over 64 µM and the MIC (Staphylococcus aureus [25]) was over 64 µM. For the same compound, the selectivity ratio [26] was 2, the MIC (Staphylococcus aureus [27]) was over 64 µM and the selectivity ratio [28] was 2. For the same compound, the selectivity ratio [29] was 32, the MIC (Escherichia coli [30]) was 16 µM and the selectivity ratio [31] was 32. The viability at 128 µM [32] was over 90%, the MIC (Escherichia coli [33]) was 8 µM and the MIC (Escherichia coli [34]) was 2 µM (≈ 5.72 µg/mL). The MIC (Enterococcus faecalis) was over 64 µM, the selectivity ratio [35] was 32 and the MIC (Salmonella typhimurium [36]) was 2 µM (≈ 5.72 µg/mL). It also gave a selectivity ratio [37] of 32, an MIC (Escherichia coli [38]) of 4 µM and an MIC (Escherichia coli [39]) of 2 µM. For the same compound, the MIC (Staphylococcus aureus [40]) was over 64 µM, the MIC (Salmonella enterica) was 8 µM (≈ 22.9 µg/mL) and the MIC [41] was over 64 µM. It also gave a selectivity ratio [42] of 2 and an MIC (Staphylococcus aureus [43]) of over 64 µM.
